The subject of data set [1] is late sodium current (late INa). The data set is described as follows: Whole-cell patch-clamp of late INa in isolated ventricular myocytes. As to conditions: for effect of ouabain (1 μmol/L) to increase late INa: FIG. 10, intracellular KN-93 10 μmol/L, EGTA 1 mmol/L, KN-92 10 μmol/L; for increase of late INa at the end of a 10-min exposure to ouabain / late INa at the end of a 10-min exposure to ouabain: ouabain 1 μmol/L. The class given is cell-based, guinea pig.

Another data set has as its system Na+, K+-ATPase. The data set is described as follows: Na+,K+-ATPase activity assay by 86Rb+ uptake of A7r5 cells. It counts as cell-based. Conditions: for 86Rb+ uptake: control = activity in presence of ouabain. The text has this:
The activity of Na^+, K^+-ATPase was inhibited 77% by 1 mmol/L ouabain in the absence (control) of ranolazine. Values of ^86Rb^+ uptake were 91±11, 98±2.5, and 93±8.3% of control (activity in presence of ouabain) in the presence of 3, 10, and 30 μmol/L ranolazine, respectively.

For data set [2], the system named is [Na+]i of guinea pig isolated heart. As to the kind of experiment: 23Na-NMR spectroscopy of intracellular sodium concentration in isolated heart.
The subject of data set [3] is guinea pig isolated, perfused heart. As to the kind of experiment: 31P-NMR spectroscopy of energy-related phosphates and pHi in isolated heart.
The subject of data set [4] is isolated guinea pig papillary muscles.
In data set [5] the test system is guinea pig isolated, perfused heart.
The mark [6] stands for this setting: agent 10 μmol/L intracellular via patch pipette.
[7] abbreviates: 0.75 μmol/L ouabain in the presence of 10 μmol/L ranolazine.
[8] abbreviates: 0.75 μmol/L ouabain in the presence of 10 μmol/L ranolazine, 60 min.

Several values for one entry are separate records, joined by “and”; a condition that tells them apart may be missing. Equal values may be shown once. Read-outs that look alike come from different tables or passages of the source.

Regarding `COc1ccc(S(=O)(=O)N(CCO)c2ccccc2CN(C)C/C=C/c2ccc(Cl)cc2)cc1` [KN-93], the “effect of ouabain (1 μmol/L) to increase late INa” value in data set [1] is “attenuated”. Further, in data set [1] (setting [6]), the “increase of late INa at the end of a 10-min exposure to ouabain” value (“increase of late INa” for short) was 76±35% and the “late INa at the end of a 10-min exposure to ouabain” value worked out at 33±6 pC/pF.
In the case of `COc1ccccc1OCC(O)CN1CCN(CC(=O)Nc2c(C)cccc2C)CC1` (stereo not drawn) [ranolazine], the “effect of 1 μmol/L ouabain to increase late INa” value in data set [1] (FIG. 9, ranolazine 10 μmol/L or TTX 3 μmol/L) is on record as “partially reversed”. Besides, the “reduction of late INa” value in data set [1] (ranolazine 10 μmol/L in the continuous presence of ouabain 1 μmol/L, n=8) was 69±9%. The “late INa” value in data set [1] (ranolazine 10 μmol/L in the continuous presence of ouabain, from 99.6±15.2, n=8) is on record as 50.6±13.6 pC/pF. For the same molecule, the “86Rb+ uptake” value with Na+, K+-ATPase (3 μmol/L ranolazine) is given as 91±11 % of control; in the data set with Na+, K+-ATPase (10 μmol/L ranolazine) it was 98±2.5 % of control; in the data set on Na+, K+-ATPase (30 μmol/L ranolazine), 93±8.3 % of control. Besides, the “effect on sodium pump activity” value in the data set on Na+, K+-ATPase (3, 10, 30 μmol/L ranolazine) is “no measurable effect”. In data set [2] (1.3 μmol/L ouabain in the presence of 10 μmol/L ranolazine, n=8), the “[Na+]i plateau concentration” value came to 15.4 ± 0.45 mmol/L. Besides, the “[Na+]i” value in data set [2] (10 μmol/L ranolazine for up to 30 min or 1 μmol/L TTX for 10 min, no ouabain) was “did not significantly change”; in data set [2] (ranolazine 10 μmol/L for 30 min, no ouabain, n=5, control 6.9±0.6), 6.5 ± 0.4 mmol/L. In addition, the “ouabain-induced increase in [Na+]i” value in data set [2] (3 or 10 μmol/L ranolazine given after 40 min of 0.75 μmol/L ouabain alone, pooled n=6, FIG. 8C) is “partially reversed”. The “cardiac [Na+]i during normal perfusion” value in data set [2] (Example 1, RAN 10 μM) was “did not change”. Also, the “[Na+]i accumulation during ouabain treatment” value in data set [2] (Example 1, RAN 10 μM, P<0.01) is reported as “reduced”. In addition, the “decrease in the ouabain-induced rise of [Na+]i” value in data set [2] (FIG. 8E, Ran 3 and 10, TTX 0.5 and 1 μmol/L) is “concentration-dependent”. Also, in data set [2] (ranolazine 10 μmol/L, 30 min, FIG. 8C), the “level of [Na+]i in hearts previously exposed to ouabain alone for 40 min” value is recorded as “did not significantly reduce”. The “[Pi] increase” value in data set [3] (setting [7]) is listed as 1.3±0.1 times; in data set [3] (Example 1, RAN + ouabain), 14%. The “fall in pHi” value in data set [3] (setting [7]) is recorded as “not significant”. Also, the “[ATP]” value in data set [3] (setting [8]) was “did not change significantly”. In addition, the “[PCr] decrease from baseline” value in data set [3] (setting [8]) was 19±5%. For the same molecule, in data set [3] (Example 1, RAN + ouabain), the pH entry is on record as “remained constant”. Also, the “ATP and PCr decrease” value in data set [3] (Example 1, RAN pretreatment, after 60 min of ouabain treatment) worked out at 20%. For the same molecule, the “decrease of |ΔG~ATP|” value in data set [3] (ouabain in the presence of 10 μmol/L ranolazine) worked out at 0.454 ± 0.14 kcal/mol. For the same molecule, the “concentrations of phosphates or pHi” value in data set [3] (ranolazine alone for 10 min) is on record as “did not alter”. Further, in data set [4] (5 and 10 μmol/L ranolazine and 1 μmol/L TTX), the “increase of diastolic tension during ouabain treatment” value is listed as “attenuated”. In data set [5], the “effect of ouabain to cause contractile dysfunction” value was “attenuated”. For the same molecule, in data set [5], the “mechanical dysfunction (increase in end diastolic pressure, episodes of cardiac standstill)” value is “not observed”. In addition, the “occurrence of episodes of cardiac standstill caused by ouabain” value in data set [5] is listed as “reduced”. Also, the “maximum value of RPP” value is given as 40,033±1,477 mmHg/min in data set [5] (0.75 μmol/L ouabain + 3 μmol/L ranolazine, n=8); 38,874±2,904 mmHg/min in data set [5] (0.75 μmol/L ouabain + 5 μmol/L ranolazine, n=5); 41,079±2,097 mmHg/min in data set [5] (0.75 μmol/L ouabain + 10 μmol/L ranolazine, n=8). Also, the “positive inotropic response to ouabain during the 60-min exposure” value in data set [5] (0.75 μmol/L ouabain + 5 μmol/L ranolazine) is “not sustained at a maximal level”. For the same molecule, the “positive inotropic response to ouabain” value in data set [5] (Example 1, RAN 10 μM, ouabain 0.75-1.3 μM for 60 min) was “did not reduce”. Also, in data set [5] (FIG. 2, 3.3 uM Ran pretreatment), the “systolic pressure during Ranolazine delivery” value is recorded as “slight drop”. For the same molecule, the “maximal inotropic effect of ouabain” value in data set [5] (FIG. 2, heart pretreated with 3.3 uM Ran) was “the same as in the ouabain alone treated hearts”. The “SP (systolic pressure)” value in data set [5] (FIG. 3, 5 uM Ran) is “transient decrease”. For the same molecule, in data set [5] (FIG. 3, 5 uM Ran), the “maximal positive inotropic effect of ouabain” value is on record as “not reduced”. The “left ventricular contractile function over the duration of the experiment” value in data set [5] (FIG. 4, heart pretreated with 10 uM Ran) is recorded as “stable contractile function”. The “ability of ouabain to significantly increase the pos dP/dt” value in data set [5] (FIG. 6) was “did not affect”. The “RPP increase upon infusion with ouabain” value in data set [5] (FIG. 6, hearts pretreated with 10 uM ranolazine) was “reached the same value as in the absence of ranolazine”. Further, the “RPP during the wash out period” value in data set [5] (FIG. 6, ouabain in the presence of ranolazine vs ouabain alone) was “improved”. Also, in data set [5] (FIG. 6, pretreatment with 10 uM ranolazine, before ouabain), the “decrease of RPP (rate pressure product)” value was “about 20%”. The developed pressure entry in data set [5] (FIG. 7, ouabain, hearts treated with 10 uM ranolazine) is on record as “increased”. The results for the “LVDevP at the end of washout” value in data set [5] (ouabain + 3 μmol/L ranolazine) and in data set [5] (ouabain + 5 or 10 μmol/L ranolazine or 1 μmol/L TTX) were 59.2±5.5 mmHg and “not significantly different from control”, respectively. For the same molecule, the “positive inotropic effect of ouabain throughout the 60-min exposure” value in data set [5] (ouabain + 10 μmol/L ranolazine (n=8) or 1 μmol/L TTX (n=6)) is on record as “sustained”. In addition, the “episodes of cardiac standstill and changes in LVEDP” value in data set [5] (ouabain + 10 μmol/L ranolazine or 1 μmol/L TTX) was “neither episodes of cardiac standstill nor changes in LVEDP were observed”. Besides, the “recovery of contractile function after drug washout” value in data set [5] (ouabain + 5 or 10 μmol/L ranolazine or 1 μmol/L TTX, vs ouabain alone) was “better recovery”. Also, the LVSP decrease in data set [5] (ranolazine alone 3 μmol/L) worked out at 8%; in data set [5] (ranolazine alone 5 μmol/L), 16.7%; in data set [5] (ranolazine alone 10 μmol/L) it was 15.8%.
For the molecule `COc1ccc(S(=O)(=O)Nc2ccccc2CN(C)C/C=C/c2ccc(Cl)cc2)cc1` [KN-92], in data set [1], the “effect of ouabain (1 μmol/L) to increase late INa” value is “not”. In data set [1] (setting [6]), the “increase of late INa” value was found to be 273±39% and the “late INa at the end of a 10-min exposure to ouabain” value is on record as 72±7 pC/pF.
For `O=C(O)CN(CCOCCOCCN(CC(=O)O)CC(=O)O)CC(=O)O` [EGTA], the “effect of ouabain (1 μmol/L) to increase late INa” value in data set [1] is on record as “attenuated”. Moreover, the “late INa at the end of a 10-min exposure to ouabain” value in data set [1] (EGTA 1 mmol/L in patch pipette, from 23±3, n=6) turned out to be 31±8 pC/pF. Also, the “increase of late INa” value in data set [1] (EGTA 1 mmol/L in patch pipette, n=6) is recorded as 33±28%.
Regarding `NC1=N[C@H](O)[C@H]2[C@H]3O[C@]4(O)O[C@@H]([C@@H](O)[C@@]2(N1)[C@@H]4O)[C@]3(O)CO` [TTX, tetrodotoxin], in data set [1], the “effect of 1 μmol/L ouabain to increase late INa” value is given as “partially reversed”, the “late INa” value is 21.2±7.9 pC/pF and the ouabain-induced late current result is given as “completely inhibited”. In data set [2], the “[Na+]i” value was “did not significantly change”, the “[Na+]i plateau concentration” value worked out at 10.5 ± 0.3 mmol/L and the “decrease in the ouabain-induced rise of [Na+]i” value is given as “concentration-dependent”. The “increase of diastolic tension during ouabain treatment” value in data set [4] was “attenuated”. Besides, in data set [5], the LVSP decrease is 9% and 18.2%; the “effect of ouabain to cause contractile dysfunction” value is recorded as “attenuated”; the “episodes of cardiac standstill and changes in LVEDP” value is listed as “neither episodes of cardiac standstill nor changes in LVEDP were observed”; the “maximum value of RPP” value was 35,569±1,850 mmHg/min and 39,182±2,216 mmHg/min. For the same molecule, in data set [5], the “occurrence of episodes of cardiac standstill caused by ouabain” value is “reduced”, the “positive inotropic effect of ouabain throughout the 60-min exposure” value is given as “sustained”, the “recovery of contractile function after drug washout” value is “better recovery” and the “responses of hearts exposed to ouabain” value is on record as “comparable to those exposed to ouabain in the presence of 3 union ranolazine”.

Values taken from patent US20100130436A1, “CO-ADMINISTRATION OF RANOLAZINE AND CARDIAC GLYCOSIDES” (priority 2008, published 2010).
